The values below come from ChEMBL document CHEMBL3507680, “University of Dundee, Gates Library screen for HepG2 cell viability”.

The nature of the series: Human HepG2 cell viability assay in 384 well format. The class given is toxicity, cell-based. Also on record: dose 125 nL, time 70.5 hour; concentration not given beside the values. To be noted: HepG2 cells, read-out: Inhibition.
As to `Cc1ccc(OC2(C(=O)O)CCN(C(=O)c3nc(C)oc3C)CC2)cn1`, the cytotoxicity at 70.5 h is -7.82%.

In the case of `Cc1ccc(Cl)cc1N1CCC(CNC(=O)Cn2cccn2)C1` (centres undefined), the cytotoxicity at 70.5 h came to 5.6%.

Consider `CCNC(=O)N1CCc2ccc(NC(=O)NCCOCC)cc21`, for which the cytotoxicity at 70.5 h came to 1.97%.

On to `CC(C(=O)N1CCCC1)S(=O)(=O)Cc1nc(C(C)(C)C)no1` (centres undefined), for which the cytotoxicity at 70.5 h was -8.31%.

In the case of `CNc1ncccc1CN1CCN(c2cc(NC3CC3)nc(N)n2)CC1`, the cytotoxicity at 70.5 h was 0.197%.

As to `O[C@@H]1CN(c2noc(C3CC3)n2)CC[C@H]1c1ccc2ccccc2c1`, the cytotoxicity at 70.5 h worked out at 17.6%.

Take `N#Cc1cccc(CN2CCC3(CC(C(=O)NCC4CC4)=NO3)C2)c1` (centres undefined): the cytotoxicity at 70.5 h was -4.48%.

Take `Cc1cc(N2CCCC(c3n[nH]c4ncccc34)C2)ncn1` (centres undefined): the cytotoxicity at 70.5 h was -4.69%.

Regarding `O=C(NCc1csc(Br)c1)N1CCOCC1`, the cytotoxicity at 70.5 h was -4.76%.

As to `O=C1NCCN1C1CCN(CCOc2ccccc2Cl)CC1`, the cytotoxicity at 70.5 h came out at 0.552%.

Turning to `CC(C)(C)n1ncc2c1NC(=O)CC2c1ccc(C(=O)O)cc1` (centres undefined), the cytotoxicity at 70.5 h was -13.3%.

For the molecule `Cc1ccc(C(=O)N2C[C@@H](OCc3cccnc3)[C@H]3OCCC[C@@H]32)o1`, the cytotoxicity at 70.5 h is 10.6%.

`CCC(NCc1cccc(Cl)c1)c1ccccc1OCC(=O)NC` (centres undefined): the cytotoxicity at 70.5 h was -1.52%.

As for `Cc1cc(C2CCCN(Cc3nc(Cc4ccccc4)no3)C2)n[nH]1` (centres undefined), the cytotoxicity at 70.5 h was -10.9%.

Consider `CCc1cnc(C(C)NC(=O)N2CCCN(CC(F)F)CC2)s1` (centres undefined), for which the cytotoxicity at 70.5 h was -4.42%.

`Cn1c(-c2cc3n(n2)CCCN(CC(=O)O)C3)nc2ccccc21`: the cytotoxicity at 70.5 h turned out to be 22.8%.

Consider `CC(C)(C)S(=O)(=O)c1ccc(N2CCN(c3ccccc3)CC2)nn1`, for which the cytotoxicity at 70.5 h was -8.92%.

On to `Cc1cnn(CC2CCCN2Cc2coc(-c3cccc(F)c3)n2)c1` (centres undefined), for which the cytotoxicity at 70.5 h is -113%.

As for `Cc1nnc(CN(C)CC(=O)N2CCCC(C)CC2)n1C` (centres undefined), the cytotoxicity at 70.5 h was -8.63%.

`CNC(=O)C1(c2cnccn2)CCCN1C(=O)c1ccccn1` (centres undefined): the cytotoxicity at 70.5 h was found to be 8.19%.

For `CN1C[C@@H](N)C[C@H]1C(=O)N1CCC(CCCc2ccccc2)CC1`, the cytotoxicity at 70.5 h is -0.968%.

Regarding `Cc1cc(C)n(Cc2cccc(C(=O)N3CCOCC3(C)C)c2)n1`, the cytotoxicity at 70.5 h was -10%.

Take `CSc1nc2ccsc2c(=O)n1CC(=O)N(C)C1CCCCC1`: the cytotoxicity at 70.5 h is -5.09%.

Regarding `COCC1CN(Cc2cccnc2)Cc2nnn(CC3CC3)c21` (centres undefined), the cytotoxicity at 70.5 h amounted to 19.4%.

With `Cc1cc(=O)c(C(=O)Nc2cccc(CCN3CCCC3)c2)c[nH]1`, the cytotoxicity at 70.5 h is -2.1%.

Turning to `CNC(=O)[C@@H](c1ccccc1OC)N1CCC[C@H]1C(=O)N1CC[C@@H](O)C1`, the cytotoxicity at 70.5 h was -3.98%.

In the case of `CN(CC1(CO)CCC1)C(=O)c1cc(COc2ccccc2F)[nH]n1`, the cytotoxicity at 70.5 h was -3.92%.

Turning to `COC(=O)N1CC(C)=C(C)CN1C(=O)Nc1cccc(Cl)c1`, the cytotoxicity at 70.5 h was 0.501%.

With `COC1CCN(c2ccc(NC(=O)Cn3cccc3)cc2)CC1`, the cytotoxicity at 70.5 h was -11%.

Consider `Cc1cnn(CC2CCCN2C(=O)c2ccc(C(N)=O)cn2)c1` (centres undefined), for which the cytotoxicity at 70.5 h was -10.6%.

`O=C(c1cn(-c2ccc(F)cc2)nn1)N1CCCC(n2cccn2)C1` (centres undefined): the cytotoxicity at 70.5 h was -1.26%.

With `CC(C)CN1CCn2c(COCc3cccnc3)nnc2C1`, the cytotoxicity at 70.5 h was -4.01%.

Turning to `O=C(NC1CC(=O)N(C2CC2)C1)c1ccc(Cl)s1` (centres undefined), the cytotoxicity at 70.5 h was -8.35%.

For the molecule `c1cncc(CN(Cc2ccc3c(c2)OCCO3)CC2CCCO2)c1` (centres undefined), the cytotoxicity at 70.5 h was 25.2%.

Take `CCN(Cc1nc2c(cnn2C)c(=O)[nH]1)c1ccc(F)cc1`: the cytotoxicity at 70.5 h is -3.68%.

Take `CN1CCC(C)(CNC(=O)c2ccc(SCc3cccnc3)cc2)CC1`: the cytotoxicity at 70.5 h was -9.14%.

As to `COc1cc(N2CCC3(CC2)CN(CCO)c2ccccc23)ncn1`, the cytotoxicity at 70.5 h was -0.577%.

As for `CN1CC2(CCN(C(=O)Cn3ncc4ccccc4c3=O)CC2)OC1=O`, the cytotoxicity at 70.5 h is -13.8%.

With `CN1CCN(C2COC3(CCN(Cc4ccsc4)CC3)C2)CC1` (centres undefined), the cytotoxicity at 70.5 h is -8.09%.
